Measurements published in US20190336489A1, “NON PEPTIDE HETEROBIVALENT MOLECULES FOR TREATING INFLAMMATORY DISEASES” (GLAXOSMITHKLINE INTELLECTUAL PROPERTY DEVELOPMENT LIMITED, priority 2017, published 2019).
Like-named read-outs stand apart in the source and are kept apart here. Marks after values point to notes of the source that are not given here.

Legend:
CCR3 = biological target: T1, CCR3 (Homo sapiens, UniProt P51677); test: Antibody Dependent Cellular Cytotoxicity (ADCC) reporter assay, CCR3 target cells; assay type: cell-based; conditions: for EC50 / ADCC efficacy: CHOK1 cells overexpressing CCR3; for EC50: Jurkat FcgRIIIa NFAT-luciferase reporter cells, EC50 class, read-out: ADCC potency; for ADCC efficacy: maximum signal:background (S/B)
T1 construct: expressed in transfected cells; host or cells: CHOK1
T1 sequence (P51677 1-355): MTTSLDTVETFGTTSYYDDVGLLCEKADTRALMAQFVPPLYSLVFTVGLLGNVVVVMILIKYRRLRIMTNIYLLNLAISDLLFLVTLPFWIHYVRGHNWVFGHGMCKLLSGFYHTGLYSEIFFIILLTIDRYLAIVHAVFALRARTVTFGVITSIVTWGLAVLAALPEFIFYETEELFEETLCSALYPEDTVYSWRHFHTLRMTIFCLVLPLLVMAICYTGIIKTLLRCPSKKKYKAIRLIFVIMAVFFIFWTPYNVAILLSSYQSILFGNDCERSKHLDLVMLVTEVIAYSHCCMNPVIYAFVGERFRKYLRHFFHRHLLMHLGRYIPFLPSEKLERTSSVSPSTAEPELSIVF
Source text: (§1) The compounds described herein have been characterized in an ADCC reporter assay (see Section 1.2 ADCC reporter for protocol). […] Furthermore, the assay also confirms that this formed complex can engage and activate the Fc receptors on immune cells. Lastly, the assay provides both potency (EC50) and efficacy (signal to background ratio) for each compound in a dose dependant manner.
(§2) This assay has four components • 1) Heterobivalent Compound consisting of a targeting ligand and a hapten connected by a linker (ranging from 10 uM-1 pM) • 2) A hapten antibody with functional Fc domain (typical concentrations are 0.01 ug/mL-200 ug/mL) • 3) Target cells—CHOK1 cells engineered to overexpress either CCR1, CCR2, or CCR3, or CEMNKR cells engineered to overexpress CCR5 (typically 1000-20,000 cells per well) • 4) Reporter cells—Jurkat cells engineered to express FcgRIIIa (ADCC reporter assay) and with a reporter gene (luciferase) under the control of the NFAT promoter (typically 3000-75,000 cells per well)
(§3) Reagents are combined in final volume of 20 uL in 384-well tissue culture treated plated.
(§4) All components are incubated together for ˜12-18 hours. Add BioGlo Detection reagent (from Promega) to lyse the cells and provide substrate for the luciferase reporter protein. Signal is measured on a microplate reader capable of measuring luminescence. Signal:Background is calculated by dividing the signal of a test well by the signal obtained when no compound is included in the assay. EC50 calculations were done using Graphpad Prism Software, specifically a nonlinear regression curve fit (Y=Bottom+(Top−Bottom)/(1+10^((Log EC50−X)*HillSlope)))

CCR2 = biological target: T2, CCR2 (Homo sapiens, UniProt P41597); test: Antibody Dependent Cellular Cytotoxicity (ADCC) reporter assay, CCR2 target cells; assay type: cell-based; conditions: for ADCC efficacy: maximum signal:background (S/B)
T2 construct: expressed in transfected cells; host or cells: CHOK1
Source text: as §1, §2, §3, §4

[1] = CHOK1 cells overexpressing CCR2, Jurkat FcgRIIIa NFAT-luciferase reporter cells, EC50 class, read-out: ADCC potency
[2] = CHOK1 cells overexpressing CCR2
[3] = CHOK1 cells overexpressing CCR2, Jurkat FcgRIIIa NFAT-luciferase reporter cells, EC50 class

T2 sequence (P41597 whole entry, species assumed): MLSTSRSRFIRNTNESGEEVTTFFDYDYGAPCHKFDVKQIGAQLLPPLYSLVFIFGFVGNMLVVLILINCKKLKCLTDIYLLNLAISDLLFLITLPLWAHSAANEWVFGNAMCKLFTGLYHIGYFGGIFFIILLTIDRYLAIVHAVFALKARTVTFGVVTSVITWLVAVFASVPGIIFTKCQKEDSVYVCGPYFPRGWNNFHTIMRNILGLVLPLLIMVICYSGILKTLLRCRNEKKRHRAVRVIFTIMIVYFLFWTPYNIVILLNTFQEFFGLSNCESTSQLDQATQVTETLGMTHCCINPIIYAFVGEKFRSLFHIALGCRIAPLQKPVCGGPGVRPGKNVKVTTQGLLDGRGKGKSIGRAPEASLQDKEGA

Row | Compound | EC50 (CCR3) [nM] | ADCC efficacy (CCR3) | EC50 (CCR2; [1]) [nM] | ADCC efficacy (CCR2; [2]) | also measured
1 | O=C(NCc1ccc(C(=O)NCCCOCCOCCOCCCNc2ccc([N+](=O)[O-])cc2[N+](=O)[O-])cc1)NC[C@@H]1CN(Cc2ccc(Cl)c(Cl)c2)CCO1 [Compound 21, (R)-4-((3-((4-(3,4-dichlorobenzyl)morpholin-2-yl)methyl)ureido)methyl)-N-(3-(2-(2-(3-((2,4-dinitrophenyl)amino)propoxy)ethoxy)ethoxy)propyl)benzamide] | < 1 | +++^f (Maximum S:B > 20 = +++) |  |  | 
2 | CCCCN1C(=O)[C@@H]([C@H](O)C2CCCCC2)NC(=O)C12CCN(Cc1ccc(Oc3ccc(C(=O)NCCOCCOCCOCCOCCOCCOCCOCCOCCOCCNC(=S)Nc4ccc5c(c4)C(=O)OC54c5ccc(O)cc5Oc5cc(O)ccc54)cc3)cc1)CC2 [Compound 25, 4-(4-(((R)-1-butyl-3-((R)-cyclohexyl(hydroxy)methyl)-2,5-dioxo-1,4,9-triazaspiro[5.5]undecan-9-yl)methyl)phenoxy)-N-(1-((3′,6′-dihydroxy-3-oxo-3H-spiro[isobenzofuran-1,9′-xanthen]-5-yl)amino)-1-thioxo-5,8,11,14,17,20,23,26,29-nonaoxa-2-azahentriacontan-31-yl)benzamide] | 1 to 10 | +++^f (Maximum S:B > 20 = +++) |  |  | 
3 | CC(C)(C)N1CCNC(C(=O)N2CCN(C(=O)Nc3nc(C(F)(F)F)c(Cl)s3)C(CCOC(=O)NCCOCCOCCOCCOCCOCCOCCOCCOCCOCCNc3ccc([N+](=O)[O-])cc3[N+](=O)[O-])C2)C1 (mixture of isomers) [Compound 18, 2-(4-(4-(Tert-butyl)piperazine-2-carbonyl)-1-((5-chloro-4-(trifluoromethyl)thiazol-2-yl)carbamoyl)piperazin-2-yl)ethyl (29-((2,4-dinitrophenyl)amino)-3,6,9,12,15,18,21,24,27-nonaoxanonacosyl)carbamate] |  |  | < 1 | +++^e (Maximum Signal:Background > 10 = +++) | efficacy signal (CCR3; ADCC reporter assay): robust; potency (CCR3; ADCC reporter assay): nanomolar range
4 | O=C(CCC(=O)N[C@H]1CC[C@H](NC(=O)c2ccc(CNC(=O)NC[C@H]3CN(Cc4ccc(Cl)c(Cl)c4)CCO3)cc2)CC1)NCCCOCCOCCOCCCNc1ccc([N+](=O)[O-])cc1[N+](=O)[O-] [Compound 23, N1-((Trans)-4-(4-((3-(((S)-4-(3,4-Dichlorobenzyl)morpholin-2-yl)methyl)ureido)methyl)benzamido)cyclohexyl)-N4-(3-(2-(2-(3-((2,4-dinitrophenyl)amino)propoxy)ethoxy)ethoxy)propyl)succinamide] | < 1 | +++^f (Maximum S:B > 20 = +++) |  |  | 
5 | Cc1ccc2c(c1)NC[C@]21CCN(C[C@@H](O)C2CCN(C(=O)c3cc4ccc(OCCOCCOCCOCCNC(=O)CCC(=O)NCCOCCOCCOCCNc5ccc([N+](=O)[O-])cc5[N+](=O)[O-])cc4[nH]3)CC2)C[C@H]1C [Compound 13, N1-(2-(2-(2-(2-((2-(4-((S)-2-((3S,3′S)-3′,6-Dimethylspiro[indoline-3,4′-piperidin]-1′-yl)-1-hydroxyethyl)piperidine-1-carbonyl)-1H-indol-6-yl)oxy)ethoxy)ethoxy)ethoxy)ethyl)-N4-(2-(2-(2-(2-((2,4-dinitrophenyl)amino)ethoxy)ethoxy)ethoxy)ethyl)succinamide] |  |  |  | +++^e (Maximum Signal:Background > 10 = +++) | EC50 (CCR2): 1 to 10 nM
6 | O=C(NCC(=O)N1CC[C@H](NC2CCC(O)(c3ccc(-c4ncccn4)cn3)CC2)C1)c1cc(OCCOCCOCCOCCOCCOCCOCCOCCOCCOCCNc2ccc([N+](=O)[O-])cc2[N+](=O)[O-])cc(C(F)(F)F)c1 (single isomer, unassigned) [Compound 16] |  |  |  | ++^e (>5 = ++) | ADCC potency (CCR2; [3]): +++ (pEC50 ≥ 9 = +++)
7 | Cc1ccc2c(c1)NC[C@]21CCN(C[C@@H](O)C2CCN(C(=O)/C=C/c3cc(F)cc(OCCOCCOCCOCCOCCOCCOCCOCCOCCOCCNc4ccc([N+](=O)[O-])cc4[N+](=O)[O-])c3)CC2)C[C@H]1C [Compound 9, (E)-1-(4-((S)-2-((3S,3′S)-3′,6-Dimethylspiro[indoline-3,4′-piperidin]-1′-yl)-1-hydroxyethyl)piperidin-1-yl)-3-(3-((29-((2,4-dinitrophenyl)amino)-3,6,9,12,15,18,21,24,27-nonaoxanonacosyl)oxy)-5-fluorophenyl)prop-2-en-1-one] |  |  | < 1 | +++^e (Maximum Signal:Background > 10 = +++) | 
8 | O=C(NCC(=O)N1CC[C@H](NC2CCC(O)(c3ccc(-c4ncccn4)cn3)CC2)C1)c1cc(OCCOCCOCCOCCOCCOCCOCCOCCOCCOCCNc2ccc([N+](=O)[O-])cc2[N+](=O)[O-])cc(C(F)(F)F)c1 (single isomer, unassigned) [Compound 17] |  |  |  | +++^e (Maximum Signal:Background > 10 = +++) | ADCC potency (CCR2; [3]): +++ (pEC50 ≥ 9 = +++)
9 | CC(C)(C)N1CCNC(C(=O)N2CCN(C(=O)Nc3ccc(Cl)c(F)c3)C(CCOC(=O)NCCOCCOCCOCCOCCOCCOCCOCCOCCOCCNc3ccc([N+](=O)[O-])cc3[N+](=O)[O-])C2)C1 (single isomer, unassigned) [Compound 19, 2-(4-(4-(Tert-butyl)piperazine-2-carbonyl)-1-((4-chloro-3-fluorophenyl)carbamoyl)piperazin-2-yl)ethyl (29-((2,4-dinitrophenyl)amino)-3,6,9,12,15,18,21,24,27-nonaoxanonacosyl)carbamate] |  |  | < 1 | +++^e (Maximum Signal:Background > 10 = +++) | 
10 | Cc1ccc2c(c1)NC[C@]21CCN(C[C@@H](O)C2CCN(C(=O)c3cc4c(OCCOCCOCCOCCNC(=O)CCC(=O)NCCOCCOCCOCCNc5ccc([N+](=O)[O-])cc5[N+](=O)[O-])cccc4[nH]3)CC2)C[C@H]1C [Compound 14, N1-(2-(2-(2-(2-((2-(4-((S)-2-((3S,3′S)-3′,6-dimethylspiro[indoline-3,4′-piperidin]-1′-yl)-1-hydroxyethyl)piperidine-1-carbonyl)-1H-indol-4-yl)oxy)ethoxy)ethoxy)ethoxy)ethyl)-N4-(2-(2-(2-(2-((2,4-dinitrophenyl)amino)ethoxy)ethoxy)ethoxy)ethyl)succinamide] |  |  |  | ++^e (>5 = ++) | EC50 (CCR2): 100 to 1000 nM
11 | Cc1ccc2c(c1)NC[C@]21CCN(C[C@@H](O)C2CCN(C(=O)c3cc4ccc(Oc5ccc(C(=O)NCCOCCOCCOCCOCCOCCOCCOCCOCCOCCNc6ccc([N+](=O)[O-])cc6[N+](=O)[O-])cc5)cc4[nH]3)CC2)C[C@H]1C [Compound 12, 4-((2-(4-((S)-2-((3S,3′S)-3′,6-Dimethylspiro[indoline-3,4′-piperidin]-1′-yl)-1-hydroxyethyl)piperidine-1-carbonyl)-1H-indol-6-yl)oxy)-N-(29-((2,4-dinitrophenyl)amino)-3,6,9,12,15,18,21,24,27-nonaoxanonacosyl)benzamide] |  |  | < 1 | +++^e (Maximum Signal:Background > 10 = +++) | 
12 | O=C(NCc1ccc(C(=O)NCCCOCCOCCOCCCNC(=S)Nc2ccc(-c3c4ccc(=O)cc-4oc4cc(O)ccc34)c(C(=O)O)c2)cc1)NC[C@H]1CN(Cc2ccc(Cl)c(Cl)c2)CCO1 [Compound 22, (S)-5-(3-(1-(4-((3-((4-(3,4-Dichlorobenzyl)morpholin-2-yl)methyl)ureido)methyl)phenyl)-1-oxo-6,9,12-trioxa-2-azapentadecan-15-yl)thioureido)-2-(6-hydroxy-3-oxo-3H-xanthen-9-yl)benzoic acid] | 1 to 10 | +++^f (Maximum S:B > 20 = +++) |  |  | 
